Experimental data taken from patent US12668594B2, “TYK2 inhibitors and uses thereof” (Sudo Biosciences Limited, priority 2020, dated 2026).

Tests used:
[1] = biological target: T1, TYK2 (Homo sapiens, UniProt P29597); assay: HEK-Blue IFNα/β reporter assay (SEAP) for TYK2 pseudokinase inhibition; format: cell-based; conditions: HEK-Blue IFNα/β cells, 1 ng/mL human recombinant IFNα
Description: (§1) HEK-Blue™ IL-23 and IFNα/β cells with a stably-integrated cytokine receptor and STAT3 or STAT1 express STAT-inducible secreted embryonic alkaline phosphatase (SEAP) reporter gene upon cytokine stimulation. These cells are plated in DMVEM (Gibco) containing 10% heat-inactivated FBS (Gibco) and 100 U/mL PenStrep (Gibco) at 37° C. under […] conditions for 20-22 hours. The cells are then pretreated with serially diluted test compounds for 60 min prior to stimulation with either 10 ng/mL human recombinant IL-23 (Miltenyl Biotech) or 1 ng/mL human recombinant IFNα (InvivoGen) for 22-24 hours for IL-23 or 16-18 h for IFNα. SEAP induction is measured using the QUANTI Blue™ Solution (InvivoGen) according to the manufacturer's instructions. Inhibition data are calculated by comparison to no inhibitor control wells for 000 inhibition and non-stimulated control wells for 10000 inhibition. Dose response curves are generated to determine the concentration required to inhibit 5000 of cellular response (IC50) as derived by non-linear regression analysis.

[2] = biological target: T1, TYK2; assay: HEK-Blue IL-23 reporter assay (SEAP) for TYK2 pseudokinase inhibition; format: cell-based; set-up: HEK-Blue™ IL-23 and IFNα/β cells with a stably-integrated cytokine receptor and STAT3 or STAT1; host or cells: HEK-Blue IL-23 / HEK-Blue IFNα/β cells (HEK293 background); conditions: HEK-Blue IL-23 cells, 10 ng/mL human recombinant IL-23, SEAP reporter; read-out: IL23 IC50
Description: as §1

T1 sequence (P29597 whole entry): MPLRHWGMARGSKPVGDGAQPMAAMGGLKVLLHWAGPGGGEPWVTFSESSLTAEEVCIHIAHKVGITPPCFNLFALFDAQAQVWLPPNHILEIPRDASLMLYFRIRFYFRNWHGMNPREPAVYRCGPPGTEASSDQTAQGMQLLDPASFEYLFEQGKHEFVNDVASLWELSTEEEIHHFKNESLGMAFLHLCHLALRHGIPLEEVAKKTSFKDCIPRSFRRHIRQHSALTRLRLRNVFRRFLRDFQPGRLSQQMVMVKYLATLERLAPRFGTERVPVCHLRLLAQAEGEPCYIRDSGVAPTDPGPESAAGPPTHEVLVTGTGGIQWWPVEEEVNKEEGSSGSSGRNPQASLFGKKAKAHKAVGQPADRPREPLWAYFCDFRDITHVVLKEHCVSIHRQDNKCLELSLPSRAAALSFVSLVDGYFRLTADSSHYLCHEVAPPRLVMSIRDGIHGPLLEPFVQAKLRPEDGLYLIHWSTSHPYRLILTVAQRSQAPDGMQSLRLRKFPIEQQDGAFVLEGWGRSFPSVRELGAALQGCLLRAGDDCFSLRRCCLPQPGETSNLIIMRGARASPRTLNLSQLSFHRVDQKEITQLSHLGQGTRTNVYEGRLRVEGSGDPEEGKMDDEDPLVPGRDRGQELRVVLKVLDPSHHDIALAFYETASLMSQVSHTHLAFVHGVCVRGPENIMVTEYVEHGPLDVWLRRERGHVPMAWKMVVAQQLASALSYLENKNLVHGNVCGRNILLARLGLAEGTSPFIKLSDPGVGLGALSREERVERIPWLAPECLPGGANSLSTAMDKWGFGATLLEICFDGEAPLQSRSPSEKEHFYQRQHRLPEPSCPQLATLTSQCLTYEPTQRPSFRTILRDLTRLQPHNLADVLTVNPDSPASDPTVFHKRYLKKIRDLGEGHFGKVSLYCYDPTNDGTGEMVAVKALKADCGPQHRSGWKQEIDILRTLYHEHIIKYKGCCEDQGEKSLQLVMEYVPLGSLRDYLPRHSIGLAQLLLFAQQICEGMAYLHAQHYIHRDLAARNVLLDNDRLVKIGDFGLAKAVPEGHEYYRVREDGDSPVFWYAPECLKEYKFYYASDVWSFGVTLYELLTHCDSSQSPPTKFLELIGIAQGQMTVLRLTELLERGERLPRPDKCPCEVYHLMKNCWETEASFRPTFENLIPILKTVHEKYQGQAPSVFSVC

SMILES	IC50 [1] [µM]	IC50 [2] [µM]
COc1cccc(-n2[nH]c(=O)c3cnc(Nc4ccc(F)cn4)cc32)n1 [Compound I-36, 6-((5-fluoropyridin-2-yl)amino)-1-(6-methoxypyridin-2-yl)-1,2-dihydro-3H-pyrazolo[4,3-c]pyridin-3-one]	< 10	< 10
COC(=O)c1ccc(-n2[nH]c(=O)c3cnc(Nc4cc(C)nc(C)n4)cc32)cc1 [Compound I-74, methyl 4-(6-((2,6-dimethylpyrimidin-4-yl)amino)-3-oxo-2,3-dihydro-1H-pyrazolo[4,3-c]pyridin-1-yl)benzoate]	< 10	< 10
COc1cc(-n2[nH]c(=O)c3cnc(Nc4cc(C)nc(C)n4)cc32)ccn1 [Compound I-83, 6-((2,6-dimethylpyrimidin-4-yl)amino)-1-(2-methoxypyridin-4-yl)-1,2-dihydro-3H-pyrazolo[4,3-c]pyridin-3-one]	< 10	< 10
Cc1ccccc1-n1[nH]c(=O)c2cnc(Nc3ccc(F)cn3)cc21 [Compound I-106, 6-((5-fluoropyridin-2-yl)amino)-1-(0-tolyl)-1,2-dihydro-3H-pyrazolo[4,3-c]pyridin-3-one]	30 to 90	< 10
Cc1cc(Nc2cc3c(cn2)c(=O)[nH]n3-c2cccc(OC(F)(F)F)c2)nc(C)n1 [Compound I-28, 6-((2,6-dimethylpyrimidin-4-yl)amino)-1-(3-(trifluoromethoxy)phenyl)-1,2-dihydro-3H-pyrazolo[4,3-c]pyridin-3-one]	< 10	< 10
COc1cccc(-n2[nH]c(=O)c3cnc(Nc4cc(OC)ncn4)cc32)c1 [Compound I-46, 1-(3-methoxyphenyl)-6-((6-methoxypyrimidin-4-yl)amino)-1,2-dihydro-3H-pyrazolo[4,3-c]pyridin-3-one]	> 90	< 10
Cc1cc(Nc2cc3c(cn2)c(=O)[nH]n3-c2cccc(Cl)c2)nc(C)n1 [Compound I-31, 1-(3-chlorophenyl)-6-((2,6-dimethylpyrimidin-4-yl)amino)-1,2-dihydro-3H-pyrazolo[4,3-c]pyridin-3-one]	< 10	< 10
Cc1ccccc1-n1[nH]c(=O)c2cnc(NC(=O)C3CC3)cc21 [Compound I-107, N-(3-oxo-1-(o-tolyl)-2,3-dihydro-1H-pyrazolo[4,3-c]pyridin-6-yl)cyclopropanecarboxamide]	< 10	< 10
O=C(Nc1cc2c(cn1)c(=O)[nH]n2-c1ccc(OC(F)(F)F)cc1)C1CC1 [Compound I-71, N-(3-oxo-1-(4-(trifluoromethoxy)phenyl)-2,3-dihydro-1H-pyrazolo[4,3-c]pyridin-6-yl)cyclopropanecarboxamide]	< 10	< 10
COc1c(-n2[nH]c(=O)c3cnc(Nc4ccc(F)cn4)cc32)cccc1C(F)(F)F [Compound I-104, 6-((5-fluoropyridin-2-yl)amino)-1-(2-methoxy-3-(trifluoromethyl)phenyl)-1,2-dihydro-3H-pyrazolo[4,3-c]pyridin-3-one]	> 90	> 90
O=C(Nc1cc2c(cn1)c(=O)[nH]n2-c1ccccc1)c1ccccn1 [Compound I-9, N-(3-oxo-1-phenyl-2,3-dihydro-1H-pyrazolo[4,3-c]pyridin-6-yl)picolinamide]	> 90	> 90
N#Cc1ccc(-n2[nH]c(=O)c3cnc(NC(=O)C4CC4)cc32)cc1C(F)(F)F [Compound I-93, N-(1-(4-cyano-3-(trifluoromethyl)phenyl)-3-oxo-2,3-dihydro-1H-pyrazolo[4,3-c]pyridin-6-yl)cyclopropanecarboxamide]	< 10	< 10
COc1cccc(-n2[nH]c(=O)c3cnc(Nc4cc(C)nc(C)n4)c(F)c32)c1 [Compound I-24, 6-((2,6-dimethylpyrimidin-4-yl)amino)-7-fluoro-1-(3-methoxyphenyl)-1,2-dihydro-3H-pyrazolo[4,3-c]pyridin-3-one]	> 90	10 to 30
COc1cccc(-n2[nH]c(=O)c3cnc(Nc4ccncn4)cc32)c1 [Compound I-51, 1-(3-methoxyphenyl)-6-(pyrimidin-4-ylamino)-1,2-dihydro-3H-pyrazolo[4,3-c]pyridin-3-one]	< 10	< 10
COc1cccc(-n2[nH]c(=O)c3cnc(Nc4cc(C)nc(C)n4)cc32)n1 [Compound I-33, 6-((2,6-dimethylpyrimidin-4-yl)amino)-1-(6-methoxypyridin-2-yl)-1,2-dihydro-3H1-pyrazolo[4,3-c]pyridin-3-one]	< 10	< 10
Cc1nc(Nc2cc3c(cn2)c(=O)[nH]n3-c2ccccc2)cc(OC(C)C)n1 [Compound I-8, 6-((6-isopropoxy-2-methylpyrimidin-4-yl)amino)-1-phenyl-1,2-dihydro-3H-pyrazolo[4,3-c]pyridin-3-one]	10 to 30	< 10
Cc1cc(Nc2cc3c(cn2)c(=O)[nH]n3-c2cccc(F)c2F)nc(C)n1 [Compound I-113, 1-(2,3-difluorophenyl)-6-((2,6-dimethylpyrimidin-4-yl)amino)-1,2-dihydro-3H-pyrazolo[4,3-c]pyridin-3-one]	< 10	< 10
COC(=O)Nc1cc2c(cn1)c(=O)[nH]n2-c1ccccc1 [Compound I-126, methyl (3-oxo-1-phenyl-2,3-dihydro-1H-pyrazolo[4,3-c]pyridin-6-yl)carbamate]	> 90	< 10
O=c1[nH]n(-c2ccc(C(F)(F)F)cc2)c2cc(Nc3ccc(F)cn3)ncc12 [Compound I-67, 6-((5-fluoropyridin-2-yl)amino)-1-(4-(trifluoromethyl)phenyl)-1,2-dihydro-3H-pyrazolo[4,3-c]pyridin-3-one]	< 10	< 10
COc1cccc(-n2[nH]c(=O)c3cnc(Nc4cc(OC)ccn4)cc32)c1 [Compound I-45, 1-(3-methoxyphenyl)-6-((4-methoxypyridin-2-yl)amino)-1,2-dihydro-3H-pyrazolo[4,3-c]pyridin-3-one]	> 90	10 to 30
O=c1[nH]n(-c2ccc(OC(F)(F)F)cc2)c2cc(Nc3ccc(F)cn3)ncc12 [Compound I-70, 6-((5-fluoropyridin-2-yl)amino)-1-(4-(trifluoromethoxy)phenyl)-1,2-dihydro-3H-pyrazolo[4,3-c]pyridin-3-one]	< 10	< 10
O=c1[nH]n(-c2ccccc2F)c2cc(Nc3ccc(F)cn3)ncc12 [Compound I-112, 1-(2-fluorophenyl)-6-((5-fluoropyridin-2-yl)amino)-1,2-dihydro-3H-pyrazolo[4,3-c]pyridin-3-one]	< 10	< 10
COc1cccc(-n2[nH]c(=O)c3cnc(Nc4cnccn4)cc32)c1 [Compound I-53, 1-(3-methoxyphenyl)-6-(pyrazin-2-ylamino)-1,2-dihydro-3H-pyrazolo[4,3-c]pyridin-3-one]	< 10	< 10
N#Cc1ccc(-n2[nH]c(=O)c3cnc(NC(=O)C4CC4)cc32)cc1Cl [Compound I-89, N-(1-(3-chloro-4-cyanophenyl)-3-oxo-2,3-dihydro-1H-pyrazolo[4,3-c]pyridin-6-yl)cyclopropanecarboxamide]	< 10	< 10
